Data from patent US12186303B2, “Feed additive for cattle comprising n-acetyl-l-tryptophan as active ingredient” (CJ CHEILJEDANG CORPORATION, priority 2018, dated 2025).

Legend:
Korean native steers [1] = experiment: Feed intake according to NALT feeding under cold stress conditions; assay type: in vivo, Korean native cattle; conditions: for Feed intake: 0.1% NALT
From the text: After grouping the animals by statistical analysis of initial body weights, the animals were bred in 1.0×1.5 m^2 individual pens during the experiment period. The feed was offered based on an amount of dry matter of daily total mixed ration (TMR) per head. After 7 days of an adaptation period for N-acetyl-L-tryptophan (NALT), a mixture of 0.1% N-acetyl-L-tryptophan (NALT) and the total mixed ration was fed to individual animals every morning at 8 a.m. for 6 weeks, and water was available ad libitum. Total amounts of L-tryptophan ingested by the control and NALT-treated group by feeding NALT were 7.37 g/day/head and 16.26 g/day/head, respectively. The experiment was performed such that the NALT-treated group ingested 8.89 g/day/head more L-tryptophan than that of the control. Meanwhile, results of growth performance analysis (body weight and average feed intake) and genetic analysis of loin tissue were obtained by statistically comparing and analyzing significant differences between the control and the NALT-treated group, and results of hematological analysis were obtained via statistical comparison and analysis depending on NALT treatment, experiment period (days), and interaction (treatment×days). These numerical values were expressed as average values, and a significance test was performed at the 5% level using Student's t-test by using the JMP 5.0 software package (SAS Institute Inc., Cary, NC, USA). Feed intake of each sentinel animal was calculated by measuring a total amount of feed offered and an amount left over every day.

Korean native steers [2] = experiment: Serum hematological properties (biochemical autoanalyzer) under heat stress conditions; assay type: in vivo, Korean native cattle; design: GLO (globulin = TP − ALB) / BUN (blood urea nitrogen) / GLU (glucose) / NEFA (non-esterified fatty acid) / TG (triglyceride) / Na (sodium): unit not given here; conditions: for ALB (albumin) / BUN (blood urea nitrogen) / CPK (creatinine phosphokinase) / GLO (globulin = TP − ALB) / GLU (glucose) / K (potassium) / NEFA (non-esterified fatty acid) / Na (sodium) / TG (triglyceride) / TP (total protein): 0.1% NALT, serum
From the text: After grouping the animals by statistical analysis of initial body weights, the animals were bred in 1.0×1.5 m^2 individual pens during the experiment period. The feed was offered based on an amount of dry matter of daily total mixed ration (TMR) per head. After 7 days of an adaptation period for N-acetyl-L-tryptophan (NALT), a mixture of 0.1% N-acetyl-L-tryptophan (NALT) and the total mixed ration was fed to individual animals every morning at 8 a.m. for 6 weeks, and water was available ad libitum. Total amounts of L-tryptophan ingested by the control and the experimental group (NALT-treated group) by feeding NALT were 6.0 g/day/head and 18.2 g/day/head, respectively. The experiment was performed such that the NALT-treated group ingested 12.2 g/day/head more L-tryptophan than the control.
Meanwhile, results of growth performance analysis (body weight and average feed intake) and genetic analysis of loin tissue were obtained by statistically comparing and analyzing significant differences between the control and the NALT-treated group, and results of hematological analysis were obtained via statistical comparison and analysis depending on NALT treatment, experiment period (days), and interaction (treatment×days). These numerical values were expressed as average values, and a significance test was performed at the 5% level using Student's t-test by using a JMP 5.0 software package (SAS Institute Inc., Cary, NC, USA).
Blood samples were collected from a jugular vein of each sentinel animal before offering the feed at the starting day of the experiment (week 0), the mid-point of the experiment (week 5), and the final day of the experiment (week 10) and stored in a vacutainer (Becton Dickinson, Franklin Lakes, NJ, USA). Complete blood cell count (CBC) was performed using whole blood using a VetScan HM2 (Abaxis, Union City, CA, USA), and hematological properties were identified using serum with a biochemical autoanalyzer (FUJI DRI-CHEM 7000, Fujifilm, Tokyo, Japan). In addition, total protein (TP), albumin (ALB), creatinine phosphokinase (CPK), and blood urea nitrogen (BUN), which are related to blood protein metabolism, were analyzed; triglycerides (TG) and non-esterified fatty acid (NEFA), which are related to energy metabolism, were analyzed; and sodium (Na), chlorine (CI), and potassium (K), which are blood electrolytes, were analyzed.

- Hematological analysis indicators (Table 14), effect of treatment with 0.1% NALT (Korean native steers [2]): No statistically significant difference
- ALB (albumin) (Korean native steers [2]; Day 0): 3.3
- BUN (blood urea nitrogen) (Korean native steers [2]; Day 0): 16.7
- CPK (creatinine phosphokinase) (Korean native steers [2]; Day 0): 112
- GLO (globulin = TP − ALB) (Korean native steers [2]; Day 0): 2.8
- GLU (glucose) (Korean native steers [2]; Day 0): 49.6
- K (potassium) (Korean native steers [2]; Day 0): 4.7
- NEFA (non-esterified fatty acid) (Korean native steers [2]; Day 0): 139
- Na (sodium) (Korean native steers [2]; Day 0): 141.3
- TG (triglyceride) (Korean native steers [2]; Day 0): 25.5
- TP (total protein) (Korean native steers [2]; Day 0): 6.1
- ALB (albumin) (Korean native steers [2]; Day 35): 3.6
- BUN (blood urea nitrogen) (Korean native steers [2]; Day 35): 19.8
- CPK (creatinine phosphokinase) (Korean native steers [2]; Day 35): 267
- GLO (globulin = TP − ALB) (Korean native steers [2]; Day 35): 2.9
- GLU (glucose) (Korean native steers [2]; Day 35): 39.1
- K (potassium) (Korean native steers [2]; Day 35): 4.8
- NEFA (non-esterified fatty acid) (Korean native steers [2]; Day 35): 167
- Na (sodium) (Korean native steers [2]; Day 35): 142.6
- TG (triglyceride) (Korean native steers [2]; Day 35): 19.1
- TP (total protein) (Korean native steers [2]; Day 35): 6.5
- ALB (albumin) (Korean native steers [2]; Day 70): 3.5
- BUN (blood urea nitrogen) (Korean native steers [2]; Day 70): 18.5
- CPK (creatinine phosphokinase) (Korean native steers [2]; Day 70): 276
- GLO (globulin = TP − ALB) (Korean native steers [2]; Day 70): 2.9
- GLU (glucose) (Korean native steers [2]; Day 70): 56.3
- K (potassium) (Korean native steers [2]; Day 70): 4.9
- NEFA (non-esterified fatty acid) (Korean native steers [2]; Day 70): 168
- Na (sodium) (Korean native steers [2]; Day 70): 141.1
- TG (triglyceride) (Korean native steers [2]; Day 70): 22.1
- TP (total protein) (Korean native steers [2]; Day 70): 6.3
Structure (SMILES): CC(=O)N[C@@H](Cc1c[nH]c2ccccc12)C(=O)O [NALT, N-acetyl-L-tryptophan]
- Feed intake (Korean native steers [1]; Days 0-6 (adaptation period)): 8.56 kg
- Feed intake (Korean native steers [1]; Days 7-13): 9.21 kg
- Feed intake (Korean native steers [1]; Days 7-48 (entire experiment period)): 9.86 kg
- Feed intake (Korean native steers [1]; Days 14-20): 9.56 kg
- Feed intake (Korean native steers [1]; Days 21-27): 9.68 kg
- Feed intake (Korean native steers [1]; Days 28-34): 10.22 kg
- Feed intake (Korean native steers [1]; Days 35-41): 10.02 kg
- Feed intake (Korean native steers [1]; Days 42-48): 10.56 kg
- Feed intake compared with the control (Korean native steers [1]; adaptation period (days 0-6)): No statistically significant difference
- Feed intake compared with the control (Korean native steers [1]; days 7-41): no statistically significant difference
- Increase in average feed intake per head compared to the control (Korean native steers [1]; days 7-48): about 4.6%
- Increase in feed intake compared to the control (Korean native steers [1]; days 42-48): about 1.02 kg
- Average feed intake per head (Korean native steers [1]; entire experiment period (days 7-48)): 9.86 kg/day/head
